Source: patent US9387221B2, “SDF-1 binding nucleic acids and the use thereof in cancer treatment” (NOXXON Pharma AG, priority 2010, dated 2016)
{PEG40k} = 40 kDa polyethylene glycol

Experiments:
[1] = test system: Jurkat cells; experiment: Proliferation of Jurkat cells in coculture with stromal MS-5 cells; assay type: cell-based, human; settings: 40 hours
Procedure: Aim of the experiment was to show whether SDF-1 binding Spiegelmer NOX-A12 has an impact on proliferation of leukemia cells in coculture with bone marrow (abbr. BM) stromal cells. Murine stromal MS-5 cells secreting SDF-1 were incubated with SDF-1 binding Spiegelmer NOX-A12 or the non-functional Spiegelmer revNOX-A12. The leukemic T-cell line Jurkat was added to the confluent stromal cell layer and incubated for 40 hours at 37° C. and 5% CO2. Cell numbers were quantified by Flow Cytometry using the Guava EasyCyte and ViaCount Reagent.
The murine stromal cell line MS-5 (ACC 441) were purchased from the DSMZ and were cultured in MEM alpha GlutaMAX (Invitrogen) with 10% FBS and penicillin-streptomycin. For proliferation coculture experiments stromal MS-5 cells were seeded the day before onto 24-well plates (the inner eight wells) at a concentration of 8×10^4/mL/well in MEM alpha GlutaMAX medium (+10% FBS) and incubated at 37° C. in 5% CO2. The confluent stromal cell layer was washed and 0.5 mL RPMI medium 1640 (+1% FBS) was added to the wells. […] 2×10^5 Jurkat cells (logarithmic growth phase; washed once) in RPMI medium 1640 (+1% FBS) were added to the confluent stromal cell layer and incubated for […] at 37° C. with 5% CO2. […] Cell viability and cell number were determined by Flow Cytometry using the Guava EasyCyte 6HT/2L.

[2] = target: SDF-1 (Homo sapiens, UniProt P48061); experiment: Inhibition of SDF-1-induced chemotaxis, BV-173 cells; assay type: cell-based; settings: 3 nM human SDF-1
Chain of SDF-1 (P48061 22-89): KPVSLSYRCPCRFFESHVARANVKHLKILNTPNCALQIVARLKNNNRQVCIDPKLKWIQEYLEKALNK
Procedure: The human T cell leukemia cell line Jurkat, the human leukemic monocyte lymphoma cell line U937, the human pre-B cell leukemia cell line BV-173 and human pre-B ALL cell line Nalm-6 express CXCR4. […] All cells used were obtained from the DSMZ (Braunschweig). All cell lines were cultivated at 37° C. and 5% CO2 in RPMI 1640 medium with Glutamax (Invitrogen, Karlsruhe, Germany) which contains 10% fetal bovine serum, 100 units/ml penicillin and 100 μg/ml streptomycin (Invitrogen, Karlsruhe, Germany). One day before the experiment, cells were seeded in a new T175 flask with a density of 0.3×10^6/ml (Jurkat, U937, BV-173) or 0.75×10^6/ml (Nalm-6), respectively.
For the experiment, cells were centrifuged (5 min at 300 g), resuspended, counted and washed once with 15 ml HBH (Hanks balanced salt solution containing 1 mg/ml bovine serum albumin and 20 mM HEPES; Invitrogen, Karlsruhe, Germany). Then the cells were resuspended at 1.33×10^6/ml (Jurkat, U937, BV-173) or 2.67×10^6/ml (Nalm-6), respectively. […]
For evaluation, fluorescence values were corrected for background fluorescence (no cells in well). Then the difference between experimental conditions with and without SDF-1 was calculated. The value for the sample without Spiegelmer (SDF-1 only) was set 100% and the values for the samples with Spiegelmer were calculated as percent of this. […]

[3] = test system: Luc+/GFP+ MM.1S cells; experiment: Multiple myeloma animal model in SCID mice; assay type: in vivo
Text: The SDF-1/CXCR4 axis plays a major role in homing and trafficking of multiple myeloma (abbr. MM) cells to the bone marrow (abbr. BM). Therefore, de-adhesion of MM cells from the surrounding BM milieu through SDF-1 inhibition enhances MM sensitivity to therapeutic agents. Azab et al. published a protocol to test the CXCR4 inhibitor AMD3100 potency to disrupt the interaction of MM cells with the BM environment in vivo that affects localization MM cells [, which in turn enhances the sensitivity of MM cells to chemotherapy. […] Based on this protocol (Azab et al. 2009) the SDF-1 binding Spiegelmer NOX-A12 is tested for its potency to disupt the interaction of MM cells with the BM environment in vivo thereby enhancing the sensitivity of the MM cells to therapy.
For the MM animal model severe combined immunodeficient (SCID) mice are used whereby Luc+/GFP+ MM.1S cells (2×10^6/mouse) are injected into the tail vein of SCID mice. After 3 to 4 weeks, sufficient tumor progression is detected by bioluminescence imaging (for protocol see Azab et al. 2009). […]

5′-40 kDa-PEG-GCGUGGUGUGAUCUAGAUGUAUUGGCUGAUCCUAGUCAGGUACGC (5' {PEG40k}, sugars by position and backbone not given here) [NOX-A12]
effect on Jurkat cell number ([1]; 1 nM): no effect | reduction of Jurkat cell number ([1]; 10 or 100 nM): up to 20% | inhibition of SDF-1 induced chemotaxis [2]: Inhibition | tumor growth (in vivo bioluminescence) ([3]; NOX-A12 20 mg/kg s.c. every other day together with bortezomib 0.5 mg/kg i.p. twice a week): reduction of tumor growth | MM cell mobilization (ex vivo flow cytometry) ([3]; SCID mice, 20 mg/kg NOX-A12 subcutaneous every other day): MM cell mobilization from bone marrow to the blood
